Assay results from PubChem BioAssay (NCI).
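Results reflect a 48-hour exposure of cells in 96-well plates to compound at five concentrations. TGI marks complete inhibition of growth.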

Tests used:
Assay in all cases: NCI tumour cell line growth inhibition, 48 h
786-0 renal = tested on: 786-0 renal
A498 renal = tested on: A498 renal
A549 NSCLC = tested on: A549 NSCLC
ACHN renal = tested on: ACHN renal
BT-549 breast = tested on: BT-549 breast
CAKI-1 renal = tested on: CAKI-1 renal
COLO 205 colon = tested on: COLO 205 colon
DU-145 prostate = tested on: DU-145 prostate
EKVX NSCLC = tested on: EKVX NSCLC
HCC-2998 colon = tested on: HCC-2998 colon
HCT-116 colon = tested on: HCT-116 colon
HCT-15 colon = tested on: HCT-15 colon
HL-60(TB) leukemia = tested on: HL-60(TB) leukemia
HOP-62 NSCLC = tested on: HOP-62 NSCLC
HOP-92 NSCLC = tested on: HOP-92 NSCLC
HT29 colon = tested on: HT29 colon
IGROV1 ovarian = tested on: IGROV1 ovarian
K-562 leukemia = tested on: K-562 leukemia
KM12 colon = tested on: KM12 colon
M14 melanoma = tested on: M14 melanoma
MCF7 breast = tested on: MCF7 breast
MDA-MB-231 breast = tested on: MDA-MB-231 breast
MDA-MB-435 = tested on: MDA-MB-435
MDA-N = tested on: MDA-N
NCI-H226 lung = tested on: NCI-H226 lung
NCI-H23 lung = tested on: NCI-H23 lung
NCI-H460 lung = tested on: NCI-H460 lung
NCI-H522 lung = tested on: NCI-H522 lung
OVCAR-4 ovarian = tested on: OVCAR-4 ovarian
OVCAR-5 ovarian = tested on: OVCAR-5 ovarian
OVCAR-8 ovarian = tested on: OVCAR-8 ovarian
PC-3 prostate = tested on: PC-3 prostate
SF-268 CNS = tested on: SF-268 CNS
SF-295 CNS = tested on: SF-295 CNS
SF-539 CNS = tested on: SF-539 CNS
SK-MEL-2 melanoma = tested on: SK-MEL-2 melanoma
SK-MEL-28 melanoma = tested on: SK-MEL-28 melanoma
SK-MEL-5 melanoma = tested on: SK-MEL-5 melanoma
SK-OV-3 ovarian = tested on: SK-OV-3 ovarian
SN12C renal = tested on: SN12C renal
SNB-19 CNS = tested on: SNB-19 CNS
SNB-75 CNS = tested on: SNB-75 CNS
SR leukemia = tested on: SR leukemia
SW-620 colon = tested on: SW-620 colon
T-47D breast = tested on: T-47D breast
TK-10 renal = tested on: TK-10 renal
U251 CNS = tested on: U251 CNS
UACC-257 melanoma = tested on: UACC-257 melanoma
UACC-62 melanoma = tested on: UACC-62 melanoma
UO-31 renal = tested on: UO-31 renal
CCRF-CEM leukemia = tested on: CCRF-CEM leukemia
HS 578T breast = tested on: HS 578T breast
LOX IMVI melanoma = tested on: LOX IMVI melanoma
MOLT-4 leukemia = tested on: MOLT-4 leukemia
OVCAR-3 ovarian = tested on: OVCAR-3 ovarian
RPMI-8226 leukemia = tested on: RPMI-8226 leukemia
RXF 393 renal = tested on: RXF 393 renal
MALME-3M melanoma = tested on: MALME-3M melanoma
NCI/ADR-RES ovarian = tested on: NCI/ADR-RES ovarian

## CC(C(=O)N1C(=O)N(C(=O)[C@H](C)C(O)c2ccccc2)[C@H](c2ccccc2)[C@H]1c1ccccc1)[C@@H](O)c1ccccc1 (some centres not stated)
786-0 renal
  TGI: 82.8 µM
A498 renal
  TGI: > 100 µM
A549 NSCLC
  TGI: > 100 µM
ACHN renal
  TGI: > 100 µM
BT-549 breast
  TGI: 71 µM
CAKI-1 renal
  TGI: 72.4 µM
COLO 205 colon
  TGI: 33.2 µM
DU-145 prostate
  TGI: > 100 µM
EKVX NSCLC
  TGI: 93.4 µM
HCC-2998 colon
  TGI: > 100 µM
HCT-116 colon
  TGI: > 100 µM
HCT-15 colon
  TGI: > 100 µM
HL-60(TB) leukemia
  TGI: > 100 µM
HOP-62 NSCLC
  TGI: > 100 µM
HOP-92 NSCLC
  TGI: 83.3 µM
HT29 colon
  TGI: > 100 µM
IGROV1 ovarian
  TGI: 64.9 µM
K-562 leukemia
  TGI: > 100 µM
KM12 colon
  TGI: > 100 µM
M14 melanoma
  TGI: 61.7 µM
MCF7 breast
  TGI: > 100 µM
MDA-MB-231 breast
  TGI: 48.9 µM
MDA-MB-435
  TGI: 54.3 µM
MDA-N
  TGI: 60.7 µM
NCI-H226 lung
  TGI: > 100 µM
NCI-H23 lung
  TGI: > 100 µM
NCI-H460 lung
  TGI: 78.1 µM
NCI-H522 lung
  TGI: > 100 µM
OVCAR-4 ovarian
  TGI: > 100 µM
OVCAR-5 ovarian
  TGI: 78.3 µM
OVCAR-8 ovarian
  TGI: > 100 µM
PC-3 prostate
  TGI: 83.6 µM
SF-268 CNS
  TGI: > 100 µM
SF-295 CNS
  TGI: > 100 µM
SF-539 CNS
  TGI: 81.9 µM
SK-MEL-2 melanoma
  TGI: 42.6 µM
SK-MEL-28 melanoma
  TGI: > 100 µM
SK-MEL-5 melanoma
  TGI: 28.1 µM
SK-OV-3 ovarian
  TGI: > 100 µM
SN12C renal
  TGI: > 100 µM
SNB-19 CNS
  TGI: > 100 µM
SNB-75 CNS
  TGI: > 100 µM
SR leukemia
  TGI: > 100 µM
SW-620 colon
  TGI: > 100 µM
T-47D breast
  TGI: > 100 µM
TK-10 renal
  TGI: > 100 µM
U251 CNS
  TGI: > 100 µM
UACC-257 melanoma
  TGI: 84.4 µM
UACC-62 melanoma
  TGI: 51.1 µM
UO-31 renal
  TGI: > 100 µM

## Cc1cc(O)c(O)c(Oc2cc(C)cc(O)c2O)c1
786-0 renal
  TGI: 55.5 µM
A498 renal
  TGI: > 100 µM
A549 NSCLC
  TGI: > 100 µM
ACHN renal
  TGI: 79.9 µM
BT-549 breast
  TGI: 78.9 µM
CAKI-1 renal
  TGI: > 100 µM
CCRF-CEM leukemia
  TGI: 7.46 µM
COLO 205 colon
  TGI: 36.4 µM
DU-145 prostate
  TGI: > 100 µM
EKVX NSCLC
  TGI: 36.8 µM
HCC-2998 colon
  TGI: > 100 µM
HCT-116 colon
  TGI: 41.1 µM
HCT-15 colon
  TGI: 29.9 µM
HL-60(TB) leukemia
  TGI: 5.54 µM
HOP-62 NSCLC
  TGI: > 100 µM
HOP-92 NSCLC
  TGI: 41.1 µM
HS 578T breast
  TGI: > 100 µM
HT29 colon
  TGI: 41.1 µM
IGROV1 ovarian
  TGI: 69.6 µM
K-562 leukemia
  TGI: > 100 µM
KM12 colon
  TGI: > 100 µM
LOX IMVI melanoma
  TGI: 24.6 µM
M14 melanoma
  TGI: 49.3 µM
MCF7 breast
  TGI: 29.3 µM
MDA-MB-231 breast
  TGI: 52.7 µM
MDA-MB-435
  TGI: > 100 µM
MDA-N
  TGI: > 100 µM
MOLT-4 leukemia
  TGI: > 100 µM
NCI-H226 lung
  TGI: 75.1 µM
NCI-H23 lung
  TGI: > 100 µM
NCI-H460 lung
  TGI: 26.6 µM
NCI-H522 lung
  TGI: 34.8 µM
OVCAR-3 ovarian
  TGI: > 100 µM
OVCAR-4 ovarian
  TGI: 28.8 µM
OVCAR-5 ovarian
  TGI: > 100 µM
OVCAR-8 ovarian
  TGI: 45.1 µM
PC-3 prostate
  TGI: > 100 µM
RPMI-8226 leukemia
  TGI: > 100 µM
RXF 393 renal
  TGI: 88.2 µM
SF-268 CNS
  TGI: 95 µM
SF-295 CNS
  TGI: 55.7 µM
SF-539 CNS
  TGI: > 100 µM
SK-MEL-2 melanoma
  TGI: > 100 µM
SK-MEL-28 melanoma
  TGI: > 100 µM
SK-MEL-5 melanoma
  TGI: > 100 µM
SK-OV-3 ovarian
  TGI: > 100 µM
SN12C renal
  TGI: 59.7 µM
SNB-19 CNS
  TGI: > 100 µM
SNB-75 CNS
  TGI: > 100 µM
SR leukemia
  TGI: 43.5 µM
SW-620 colon
  TGI: > 100 µM
T-47D breast
  TGI: 84.9 µM
TK-10 renal
  TGI: 36.3 µM
U251 CNS
  TGI: > 100 µM
UACC-257 melanoma
  TGI: > 100 µM
UACC-62 melanoma
  TGI: 56.8 µM
UO-31 renal
  TGI: > 100 µM

## CC(C)N(C(=O)c1ccc(NCc2cc(O)ccc2O)cc1)C(C)C
786-0 renal
  TGI: 26.6 µM
A498 renal
  TGI: 62.2 µM
A549 NSCLC
  TGI: > 100 µM
ACHN renal
  TGI: 26.7 µM
BT-549 breast
  TGI: 30.7 µM
CAKI-1 renal
  TGI: 27.2 µM
CCRF-CEM leukemia
  TGI: > 100 µM
COLO 205 colon
  TGI: > 100 µM
DU-145 prostate
  TGI: 30 µM
EKVX NSCLC
  TGI: 28.6 µM
HCT-116 colon
  TGI: 29.6 µM
HCT-15 colon
  TGI: 33.6 µM
HL-60(TB) leukemia
  TGI: > 100 µM
HOP-62 NSCLC
  TGI: 69.4 µM
HOP-92 NSCLC
  TGI: 24.9 µM
HS 578T breast
  TGI: 78.7 µM
HT29 colon
  TGI: 35 µM
IGROV1 ovarian
  TGI: 64.8 µM
K-562 leukemia
  TGI: > 100 µM
LOX IMVI melanoma
  TGI: 30.4 µM
M14 melanoma
  TGI: 35.7 µM
MALME-3M melanoma
  TGI: 28.9 µM
MCF7 breast
  TGI: 87.8 µM
MDA-MB-231 breast
  TGI: 32 µM
MDA-MB-435
  TGI: 40.9 µM
MDA-N
  TGI: 42 µM
MOLT-4 leukemia
  TGI: > 100 µM
NCI-H226 lung
  TGI: 45.3 µM
NCI-H23 lung
  TGI: 42.2 µM
NCI-H460 lung
  TGI: 34.6 µM
NCI/ADR-RES ovarian
  TGI: 42.9 µM
OVCAR-3 ovarian
  TGI: 25.1 µM
OVCAR-4 ovarian
  TGI: 28.3 µM
OVCAR-5 ovarian
  TGI: 43.8 µM
OVCAR-8 ovarian
  TGI: 35.4 µM
PC-3 prostate
  TGI: 52.3 µM
RXF 393 renal
  TGI: 28.3 µM
SF-268 CNS
  TGI: 36.2 µM
SF-295 CNS
  TGI: 46 µM
SF-539 CNS
  TGI: 34 µM
SK-MEL-2 melanoma
  TGI: 57.9 µM
SK-MEL-28 melanoma
  TGI: 45.9 µM
SK-MEL-5 melanoma
  TGI: 37.8 µM
SK-OV-3 ovarian
  TGI: > 100 µM
SN12C renal
  TGI: 49 µM
SNB-19 CNS
  TGI: 58.6 µM
SNB-75 CNS
  TGI: > 100 µM
SR leukemia
  TGI: > 100 µM
SW-620 colon
  TGI: 82 µM
T-47D breast
  TGI: 40.7 µM
TK-10 renal
  TGI: 29.5 µM
U251 CNS
  TGI: 32.6 µM
UACC-257 melanoma
  TGI: 31.4 µM
UACC-62 melanoma
  TGI: 28.9 µM
UO-31 renal
  TGI: 21.3 µM
